Data: US12606526B2, “Substituted salicylamide compounds and use thereof” (HELIOS HUAMING BIOPHARMA CO., LTD., priority 2021, dated 2026)

What follows are compounds tested against PAD4 (Homo sapiens, UniProt Q9UM07) (assay: PAD4 Inhibition Assay (citrulline formation from BAEE)). Conditions: PAD4 75 nM, 60-minute preincubation at 37° C., substrate BAEE, 90 minutes.
Format: biochemical
Procedure: PAD4 was diluted to 75 nM in Assay Buffer (50 mM Tris-HCl, 2 mM CaCl2, 2 mM DTT, 1 mM PMSF in H2O) and added to wells with various concentrations of compound or DMSO vehicle in Eppendorf tubes (final volume was 100 μL). Following a 60-minute preincubation at 37° C., the reaction was initiated by the addition of 10 μL substrate (22 mM BAEE in H2O) at 37° C. The reaction was stopped after 90 minutes by the addition of 25 μL HClO4 (5 M), 125 μL Reagent A (10 g/L diacetyl monoxime and 15 g/L NaCl in H2O) and 250 μL Reagent B (10 mg/mL antipyrine and 1.5 mg/mL FeCl3 diluted in detection buffer containing 25% H2SO4, 25% H3PO4 and 50% H2O) in sequence. This assay was quenched in an ice-bath for 5 minutes after boiling for 30 minutes. The citrulline formation was measured in […] (λ=465 nm) on microplate reader and the IC50 was calculated by GraphPad Prism 5.

Sequence of PAD4 (Q9UM07 whole entry): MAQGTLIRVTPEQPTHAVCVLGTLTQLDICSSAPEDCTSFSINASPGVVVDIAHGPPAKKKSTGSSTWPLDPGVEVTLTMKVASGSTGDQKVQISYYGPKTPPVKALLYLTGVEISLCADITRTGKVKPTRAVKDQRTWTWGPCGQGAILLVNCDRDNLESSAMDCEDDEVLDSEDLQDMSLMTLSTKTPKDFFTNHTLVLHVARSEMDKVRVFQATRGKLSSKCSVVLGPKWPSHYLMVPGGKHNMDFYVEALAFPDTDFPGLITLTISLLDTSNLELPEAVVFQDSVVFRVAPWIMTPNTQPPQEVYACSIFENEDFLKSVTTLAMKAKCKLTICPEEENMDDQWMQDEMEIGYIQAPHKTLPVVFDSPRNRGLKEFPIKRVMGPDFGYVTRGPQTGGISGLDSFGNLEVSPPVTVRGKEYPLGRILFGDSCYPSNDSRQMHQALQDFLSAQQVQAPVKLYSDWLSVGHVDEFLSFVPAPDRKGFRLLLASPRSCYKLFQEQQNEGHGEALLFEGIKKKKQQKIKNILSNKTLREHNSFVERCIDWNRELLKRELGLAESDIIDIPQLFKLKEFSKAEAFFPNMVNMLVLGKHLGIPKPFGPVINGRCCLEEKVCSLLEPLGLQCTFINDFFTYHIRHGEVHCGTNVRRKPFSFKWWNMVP

IC50 [nM] | Structure (SMILES)
500 to 10000 | COc1ccc(-c2ccccc2)cc1C(=O)N[C@@H](CCCNC(=N)CF)C(=O)NCc1cccc(Cl)c1 [EX-9, (S)-N-(1-((3-Chlorobenzyl)amino)-5-(2-fluoroacetimidamido)-1-oxopentan-2-yl)-4-methoxy-[1,1′-biphenyl]-3-carboxamide]
500 to 10000 | COc1ccc(-c2ccccc2)cc1C(=O)N[C@@H](CCCNC(=N)CF)C(=O)NCc1cccc(C)c1 [EX-8, (S)-N-(5-(2-Fluoroacetimidamido)-1-((3-methylbenzyl)amino)-1-oxopentan-2-yl)-4-methoxy-[1,1′-biphenyl]-3-carboxamide]
< 500 | COc1cc2c(OC)cccc2cc1C(=O)N[C@@H](CCCNC(=N)CF)C(=O)NCc1ccc(F)cc1 [EX-22, (S)-N-(5-(2-Fluoroacetimidamido)-1-((4-fluorobenzyl)amino)-1-oxopentan-2-yl)-3,5-dimethoxy-2-naphthamide]
< 500 | COc1cccc(OC)c1C(=O)N[C@@H](CCCNC(=N)CF)C(=O)NCc1ccc(Cl)cc1 [EX-3, (S)-N-(1-((4-Chlorobenzyl)amino)-5-(2-fluoroacetimidamido)-1-oxopentan-2-yl)-2,6-dimethoxybenzamide]
< 500 | COc1cc2c(OC)cccc2cc1C(=O)N[C@@H](CCCNC(=N)CF)C(=O)NCc1cccc(NC(=O)CCCNC(=O)CCCC[C@@H]2SC[C@@H]3NC(=O)N[C@@H]32)c1 [EX-24]
< 500 | COc1ccc(Cl)cc1C(=O)N[C@@H](CCCNC(=N)CF)C(=O)NCc1ccc(C)cc1 [EX-16, (S)-5-Chloro-N-(5-(2-fluoroacetimidamido)-1-((4-methylbenzyl)amino)-1-oxopentan-2-yl)-2-methoxybenzamide]
500 to 10000 | COc1ccccc1C(=O)N[C@@H](CCCNC(=N)CF)C(=O)NCc1ccc(Cl)cc1 [EX-5, (S)-N-(1-((4-Chlorobenzyl)amino)-5-(2-fluoroacetimidamido)-1-oxopentan-2-yl)-2-methoxybenzamide]
< 500 | COc1cc2c(OC)cccc2cc1C(=O)N[C@@H](CCCNC(=N)CF)C(=O)NCc1cccc(Cl)c1 [EX-20, (S)-N-(1-((3-Chlorobenzyl)amino)-5-(2-fluoroacetimidamido)-1-oxopentan-2-yl)-3,5-dimethoxy-2-naphthamide]
< 500 | COc1cc2ccccc2cc1C(=O)N[C@@H](CCCNC(=N)CF)C(=O)NCc1ccccc1 [EX-2, (S)-N-(1-(Benzylamino)-5-(2-fluoroacetimidamido)-1-oxopentan-2-yl)-3-methoxy-2-naphthamide]
< 500 | COc1c(C(=O)N[C@@H](CCCNC(=N)CF)C(=O)NCc2ccccc2)ccc2cc(N(C)C)ccc12 [EX-23, (S)-N-(1-(Benzylamino)-5-(2-fluoroacetimidamido)-1-oxopentan-2-yl)-6-(dimethylamino)-1-methoxy-2-naphthamide]
< 500 | COc1ccc(Cl)cc1C(=O)N[C@@H](CCCNC(=N)CF)C(=O)NCc1ccccn1 [EX-18, (S)-5-Chloro-N-(5-(2-fluoroacetimidamido)-1-oxo-1-((pyridin-2-ylmethyl)amino)pentan-2-yl)-2-methoxybenzamide]
< 500 | COc1cc2c(OC)cccc2cc1C(=O)N[C@@H](CCCNC(=N)CF)C(=O)NCc1ccccc1 [EX-1, (S)-N-(1-(benzylamino)-5-(2-fluoroacetimidamido)-1-oxopentan-2-yl)-3,5-dimethoxy-2-naphthamide]
< 500 | COc1ccc(Cl)cc1C(=O)N[C@@H](CCCNC(=N)CF)C(=O)NCc1ccc(Cl)cc1 [EX-6, (S)-5-Chloro-N-(1-((4-chlorobenzyl)amino)-5-(2-fluoroacetimidamido)-1-oxopentan-2-yl)-2-methoxybenzamide]
< 500 | COc1ccc(Cl)cc1C(=O)N[C@@H](CCCNC(=N)CF)C(=O)NCc1cccc(Cl)c1 [EX-14, (S)-5-Chloro-N-(1-((3-chlorobenzyl)amino)-5-(2-fluoroacetimidamido)-1-oxopentan-2-yl)-2-methoxybenzamide]
< 500 | COc1ccccc1CNC(=O)[C@H](CCCNC(=N)CF)NC(=O)c1cc(-c2ccccc2)ccc1OC [EX-13, (S)-N-(5-(2-Fluoroacetimidamido)-1-((2-methoxybenzyl)amino)-1-oxopentan-2-yl)-4-methoxy-[1,1′-biphenyl]-3-carboxamide]
< 500 | COc1cc2c(OC)cccc2cc1C(=O)N[C@@H](CCCNC(=N)CF)C(=O)NCc1ccc(Cl)cc1 [EX-19, (S)-N-(1-((4-Chlorobenzyl)amino)-5-(2-fluoroacetimidamido)-1-oxopentan-2-yl)-3,5-dimethoxy-2-naphthamide]
< 500 | COc1ccc(-c2ccccc2)cc1C(=O)N[C@@H](CCCNC(=N)CF)C(=O)NCc1ccccc1 [EX-7, (S)-N-(1-(Benzylamino)-5-(2-fluoroacetimidamido)-1-oxopentan-2-yl)-4-methoxy-[1,1′-biphenyl]-3-carboxamide]
< 500 | COc1ccc(-c2cccc(C)c2)cc1C(=O)N[C@@H](CCCNC(=N)CF)C(=O)NCc1ccccc1 [EX-12, (S)-N-(1-(Benzylamino)-5-(2-fluoroacetimidamido)-1-oxopentan-2-yl)-4-methoxy-3′-methyl-[1,1′-biphenyl]-3-carboxamide]
< 500 | COc1cc2c(OC)cccc2cc1C(=O)N[C@@H](CCCNC(=N)CF)C(=O)NCc1cccc(F)c1 [EX-21, (S)-N-(5-(2-Fluoroacetimidamido)-1-((3-fluorobenzyl)amino)-1-oxopentan-2-yl)-3,5-dimethoxy-2-naphthamide]
500 to 10000 | COc1cccc(Cl)c1C(=O)N[C@@H](CCCNC(=N)CF)C(=O)NCc1ccc(Cl)cc1 [EX-4, (S)-2-Chloro-N-(1-((4-chlorobenzyl)amino)-5-(2-fluoroacetimidamido)-1-oxopentan-2-yl)-6-methoxybenzamide]
500 to 10000 | COc1ccc(-c2cccc(Cl)c2)cc1C(=O)N[C@@H](CCCNC(=N)CF)C(=O)NCc1ccccc1 [EX-11, (S)-N-(1-(Benzylamino)-5-(2-fluoroacetimidamido)-1-oxopentan-2-yl)-3′-chloro-4-methoxy-[1,1′-biphenyl]-3-carboxamide]
< 500 | COc1ccc(Cl)cc1C(=O)N[C@@H](CCCNC(=N)CF)C(=O)NCc1ccccc1Cl [EX-15, (S)-5-Chloro-N-(1-((2-chlorobenzyl)amino)-5-(2-fluoroacetimidamido)-1-oxopentan-2-yl)-2-methoxybenzamide]
< 500 | COc1ccc(CNC(=O)[C@H](CCCNC(=N)CF)NC(=O)c2cc(Cl)ccc2OC)cc1 [EX-17, (S)-5-Chloro-N-(5-(2-fluoroacetimidamido)-1-((4-methoxybenzyl)amino)-1-oxopentan-2-yl)-2-methoxybenzamide]
< 500 | COc1ccc(-c2ccccc2)cc1C(=O)N[C@@H](CCCNC(=N)CF)C(=O)NCc1ccccn1 [EX-10, (S)-N-(5-(2-Fluoroacetimidamido)-1-oxo-1-((pyridin-2-ylmethyl)amino)pentan-2-yl)-4-methoxy-[1,1′-biphenyl]-3-carboxamide]
